These results are taken from article PMC8691750, “Euphorbia Factor L2 ameliorates the Progression of K/BxN Serum-Induced Arthritis by Blocking TLR7 Mediated IRAK4/IKKβ/IRF5 and NF-kB Signaling Pathways” (Frontiers in Pharmacology, 2021).

Experiment [1] deals with TNF-α, IL-4, IL-17A, IL-1β and IL-6 in serum. The experiment can be described thus: Cytokines in sera of STA mice (CBA Multiplex kit, ELISA). Type of experiment: in vivo, C57BL/6 mice. The procedure:
K/BxN serum was collected from K/BxN mice at 8 weeks of age, pooled, aliquoted and stored at -20 °C. K/BxN serum-transfer arthritis (STA) model was induced by intraperitoneal (i.p.) application of 150 μL of serum at day 0. Clinical score for arthritis severity was assessed using a 0–4 point scale for each paw at various time points (0–16 total score) as described previously ([Luo et al., 2011]). 8-week old male C57BL/6 mice were purchased from Dashuo Animal Center (China, Chengdu), maintained at 25°C, and exposed to 12-h light and dark cycles. Mice were fed with standard laboratory chow and water with 1 week of acclimatization. Naive mice were used as the control group. Except the control mice, all mice were i. p. injected with 150 μL of serum, then randomly divided into the following groups and treated with different compounds daily for the consecutive 8 days: 1) STA group; 2) Solvent control group, mice were gavaged with the solvent; 3) Dexamethasone (DEX) group, mice were gavaged with 30 mg/kg DEX; 4) EFL2 group 1, mice were gavaged with 40 mg/kg EFL2; 5) EFL2 group 2, mice were intraperitoneally injected with 15 mg/kg EFL2; 6) EFL2 group 3, […] were intraperitoneally injected with 40 mg/kg EFL2. […] All animal experiments were conducted in accordance with ethical regulation for animal care and use in China.
IL-4, IL-17A and TNF-α in sera from different group mice were measured using CBA Multiplex kit (BD, United States). The concentrations of IL-1β and IL-6 in serum or supernatant were detected by ELISA Kit (MULTI SCIENCES, China) according to the manufacturers’ instructions.
On the technique in general: An ELISA detects its analyte on a solid surface through an enzyme-linked reagent.

For experiment [2], the system named is neutrophils, macrophages and inflammatory monocytes in the blood. The experiment can be described thus: Flow cytometry of myeloid cells in peripheral blood of STA mice. Type of experiment: in vivo, C57BL/6 mice. The following applies: EFL2 40 mg/kg i.p. The procedure:
K/BxN serum was collected from K/BxN mice at 8 weeks of age, pooled, aliquoted and stored at -20 °C. K/BxN serum-transfer arthritis (STA) model was induced by intraperitoneal (i.p.) application of 150 μL of serum at day 0. Clinical score for arthritis severity was assessed using a 0–4 point scale for each paw at various time points (0–16 total score) as described previously ([Luo et al., 2011]). 8-week old male C57BL/6 mice were purchased from Dashuo Animal Center (China, Chengdu), maintained at 25°C, and exposed to 12-h light and dark cycles. Mice were fed with standard laboratory chow and water with 1 week of acclimatization. Naive mice were used as the control group. […]
150 μL peripheral blood and the hind ankles were collected on day 5 and 13 post KBx/N serum transfer, respectively. […] Data were acquired using a BD FACSCalibur flow cytometer (BD Biosciences) and were analyzed by using FlowJo software (Version 7.6.1).
A general note: In flow cytometry, cells or beads pass a laser one at a time.

`C=C1C(OC(=O)c2ccccc2)CC2C(C=C(C)C(=O)C3(OC(C)=O)CC(C)C(OC(=O)c4ccccc4)C3C1OC(C)=O)C2(C)C` (centres unmarked) [EFL2, Euphorbia factor L2]: in experiment [1] (STA mice, EFL2 15 mg/kg i.p., day 8), the “IL-6 level in sera” value is given as “only effectively inhibited”. In experiment [1] (STA mice, EFL2 40 mg/kg i.p.), the “IL-1β level in sera” value is listed as “significantly reduced” and the “IL-6 level in sera” value is “significantly reduced”. For the same compound, in experiment [1] (control, STA and STA mice treated with DEX or EFL2), the “TNF-α, IL-4 and IL-17A levels in blood (other cytokines)” value is on record as “did not affect”. Further, the “expansions of three myeloid cells subsets in the blood” value in experiment [2] was “more robust suppressive effect”.
